Laboratory results published in US10227347B2, “Purinyl-N-hydroxyl pyrimidine formamide derivative, preparation methods and uses thereof” (Guizhou Bailing Group Pharmaceutical CO., LTD., priority 2015, dated 2019).
Where two headings read alike, the source gives them in different places.

Experiments:
[1] = tested on: MV4-11 cells (acute myeloid leukemia); assay: Cell proliferation inhibition, MV4-11 (cck-8); type: cell-based; conditions: Homo sapiens
Protocol: (§1) The tumor cell lines are purchased from American Type Culture Collection (ATCC) and cultivated to the status of logarithmic growth as per the cultural method recommended by ATCC. The cells in logarithmic phase are spread on a 96 well plate as per 2000-3000/well; as for anchorage-dependent cells, the compound should be added in the test wells at certain concentration for incubation for 96 h after cell adherence. Determining cell proliferation activities with method MTT for tumor cells representing solid tumor model and with method cck-8 for tumor cells representing hematologic tumor model, and analyzing the result data with the software GraphPad Prism.
(§2) Calculating the value of IC50 as per the formula: Y=background data+(top data−background data)/(1+10^((Log IC50−X)*rate of curve)). Where, Y refers to the inhibition ratio (%) and X refers to the compound concentration.

PI3Kα = target: T1, PI3Kα (Homo sapiens, UniProt P42336); assay: PI3Kα activity inhibition (Kinase-Glo); type: biochemical
T1 construct: purchased Invitrogen PV4788
Protocol: Detecting the inhibition capability of the compound to PI3Kα and PI3Kδ activities with Kinase-Glo (purchased from Promege Company; Catalog No.: V3771). […] The reaction system also comprises substrates as PIP2 (4, 5-diphosphoinositide, purchased from Life Technologies Company) and ATP (triphosadenine, purchased from Sigma Company). The reaction buffer system comprises 50 mM HEPES (4-hydroxyethylpiperazine ethane sulfonic acid), 3 mM MgCl2, 1 mM EGTA (ethylene glycol bis(2-amino ethylether)quadrol), 100 mM NaCl, 0.03% CHAPS (3-[3-(cholamidopropyl)dimethylamino]-1-propanesulfonic acid), 2 mM DTT (dithiothreitol). The pH value of the reaction buffer is 7.5. […] Mixing the system evenly for incubation under ambient temperature (for 1 h in PI3Kα test and for 2 h in PI3Kδ test). After incubation, adding 10 μL Kinase-Glo which has been preheated to ambient temperature into each reaction well to terminate the reaction; shaking it in dark place for 15 min after it is mixed evenly, then measuring the fluorescence intensity with a microplate reader and analyzing the result data with the software GraphPad Prism.
(§3) Calculating the value of IC50 as per the formula: Y=background data+(top data−background data)/(1+10^((Log IC50−X)*rate of curve))
Where, Y refers to the inhibition ratio (%) and X refers to the compound concentration.

HDAC1 = target: T2, HDAC1 (Homo sapiens, UniProt Q13547); assay: In vitro HDAC1 enzymatic activity inhibition (Lys-Ac-AMC substrate); type: biochemical
T2 construct: purchased BPS Bioscience
Protocol: Determining the inhibition capability to HDAC activity through the substrate method of fluorophore 4-amino-7-coumarin coupled Ac-peptide (Lys-Ac-AMC). HDAC1 protein is purchased from BPS Bioscience Company; the reaction buffer system is a modified tris(hydroxymethyl)aminomethane (TRIS) buffer (pH7.0). All small molecule compounds are prepared and dissolved by 100% DMSO (dimethyl sulfoxide). HDAC is prepared into the buffer as per certain concentration to be served as the enzyme solution; trypsin and the fluorophore 4-amino-7-coumarin coupled Ac-peptide substrate are prepared into the buffer as per certain concentration to be served as the substrate solution. Adding the compound into the reaction wells of the 384 well plate at the designed concentration, then adding 15 μL HDAC solution into the reaction wells (adding 15 μL blank buffer into the control well 0) for incubation under ambient temperature for 15 min; then adding 10 μL substrate solution to start reaction; during the reaction, the final concentration of HDAC1 protein is 6 nM, trypsin 0.05 μM and Ac-peptide 8 μM.
as §3
Where, Y refers to the inhibition ratio (%) and X refers to the compound concentration. […]
Analyzing the result data with the software GraphPad Prism and calculating the value of IC50 as per the formula: Y=background data+(top data−background data)/(1+10^((Log IC50−X)*rate of curve)). Where, Y refers to the inhibition ratio (%) and X refers to the compound concentration.

[2] = tested on: A2780s cells (ovarian cancer); assay: Cell proliferation inhibition, A2780s (MTT); type: cell-based; conditions: Homo sapiens
Protocol: as §1, §2

[3] = tested on: hct116 cells (colon cancer); assay: Cell proliferation inhibition, hct116 (MTT); type: cell-based; conditions: Homo sapiens, HCT-116
Protocol: as §1, §2

[4] = 96 h incubation, read-out: Proliferation IC50, Acute myeloid leukemia MV4-11
[5] = Table 1, graded, read-out: PI3Kα IC50
[6] = Table 1, graded, read-out: HDAC1 IC50
[7] = 96 h incubation, read-out: Proliferation IC50, Ovarian cancer A2780s
[8] = 96 h incubation, read-out: Proliferation IC50, Colon cancer hct116
[9] = read-out: IC50 to proliferation of MV4-11 cells
[10] = read-out: IC50 to proliferation of hct116 cells
[11] = read-out: inhibition value IC50 to the activity of HDAC1
[12] = read-out: IC50 to proliferation of A2780s cells

T2 sequence (Q13547 whole entry, species assumed): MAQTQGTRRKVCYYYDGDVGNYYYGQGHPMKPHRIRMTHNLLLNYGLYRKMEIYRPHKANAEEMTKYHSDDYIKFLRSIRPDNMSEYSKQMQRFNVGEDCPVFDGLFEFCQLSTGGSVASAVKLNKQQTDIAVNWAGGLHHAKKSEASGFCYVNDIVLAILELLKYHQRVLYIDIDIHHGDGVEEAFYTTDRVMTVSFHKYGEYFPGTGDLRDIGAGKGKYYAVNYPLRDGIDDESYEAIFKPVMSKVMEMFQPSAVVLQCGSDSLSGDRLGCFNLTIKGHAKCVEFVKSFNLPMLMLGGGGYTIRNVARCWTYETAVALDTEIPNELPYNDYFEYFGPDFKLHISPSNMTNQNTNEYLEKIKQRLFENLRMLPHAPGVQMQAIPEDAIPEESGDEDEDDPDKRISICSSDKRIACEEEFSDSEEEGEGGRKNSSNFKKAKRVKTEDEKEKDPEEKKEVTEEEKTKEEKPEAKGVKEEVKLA
T1 sequence (P42336 whole entry, species assumed): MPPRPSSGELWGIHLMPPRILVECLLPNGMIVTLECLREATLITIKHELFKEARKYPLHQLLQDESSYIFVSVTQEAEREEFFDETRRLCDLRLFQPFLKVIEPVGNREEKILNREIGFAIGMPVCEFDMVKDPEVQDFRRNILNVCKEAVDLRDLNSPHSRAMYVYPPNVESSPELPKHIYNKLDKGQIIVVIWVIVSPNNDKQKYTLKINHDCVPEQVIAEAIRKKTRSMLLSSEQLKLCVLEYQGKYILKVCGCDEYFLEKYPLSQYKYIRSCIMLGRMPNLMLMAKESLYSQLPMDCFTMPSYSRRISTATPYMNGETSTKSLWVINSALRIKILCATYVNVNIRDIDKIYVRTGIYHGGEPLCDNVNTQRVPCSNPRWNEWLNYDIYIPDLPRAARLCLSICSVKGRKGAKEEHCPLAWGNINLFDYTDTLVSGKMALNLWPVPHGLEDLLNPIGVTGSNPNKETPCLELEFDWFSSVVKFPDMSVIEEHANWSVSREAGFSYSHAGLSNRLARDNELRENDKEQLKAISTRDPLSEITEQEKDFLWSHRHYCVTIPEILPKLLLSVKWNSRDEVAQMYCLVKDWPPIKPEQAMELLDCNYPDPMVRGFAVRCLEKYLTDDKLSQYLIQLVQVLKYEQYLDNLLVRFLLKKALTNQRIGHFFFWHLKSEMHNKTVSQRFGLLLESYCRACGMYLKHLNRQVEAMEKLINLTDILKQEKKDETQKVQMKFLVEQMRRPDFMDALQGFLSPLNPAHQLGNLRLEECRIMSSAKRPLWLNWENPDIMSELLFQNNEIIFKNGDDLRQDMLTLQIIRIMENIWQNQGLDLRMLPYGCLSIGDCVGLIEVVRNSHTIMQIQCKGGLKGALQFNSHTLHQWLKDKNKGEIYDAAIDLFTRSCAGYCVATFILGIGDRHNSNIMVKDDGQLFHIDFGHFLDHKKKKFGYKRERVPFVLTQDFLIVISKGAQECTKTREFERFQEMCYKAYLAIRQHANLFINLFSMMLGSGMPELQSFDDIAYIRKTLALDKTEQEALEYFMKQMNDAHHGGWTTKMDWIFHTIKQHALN
T1 sequence (P27986 whole entry partner, species assumed): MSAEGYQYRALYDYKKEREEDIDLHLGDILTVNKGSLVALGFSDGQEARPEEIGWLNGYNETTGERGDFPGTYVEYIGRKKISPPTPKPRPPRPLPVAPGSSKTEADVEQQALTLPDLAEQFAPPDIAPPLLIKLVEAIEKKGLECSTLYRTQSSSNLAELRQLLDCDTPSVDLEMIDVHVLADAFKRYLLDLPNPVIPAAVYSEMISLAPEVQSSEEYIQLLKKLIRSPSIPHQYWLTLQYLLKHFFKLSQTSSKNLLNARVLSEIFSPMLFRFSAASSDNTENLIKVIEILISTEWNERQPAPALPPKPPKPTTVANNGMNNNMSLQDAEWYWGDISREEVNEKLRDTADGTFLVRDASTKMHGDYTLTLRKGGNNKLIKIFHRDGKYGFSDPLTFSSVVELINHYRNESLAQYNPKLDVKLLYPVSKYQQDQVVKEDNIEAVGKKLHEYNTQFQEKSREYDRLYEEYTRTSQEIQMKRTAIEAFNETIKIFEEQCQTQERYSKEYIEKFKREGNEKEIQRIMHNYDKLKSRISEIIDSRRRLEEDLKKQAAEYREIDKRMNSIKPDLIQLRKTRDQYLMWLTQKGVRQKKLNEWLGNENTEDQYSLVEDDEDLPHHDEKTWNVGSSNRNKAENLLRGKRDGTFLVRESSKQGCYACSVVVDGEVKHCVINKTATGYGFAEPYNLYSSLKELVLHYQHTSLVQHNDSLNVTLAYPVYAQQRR

Compound	IC50 [1, 4] [nM]	IC50 (PI3Kα; [5]) [nM]	IC50 (HDAC1; [6]) [nM]	IC50 [2, 7] [nM]	IC50 [3, 8] [nM]	IC50 [1, 9] [nM]	IC50 [3, 10] [nM]	IC50 (HDAC1; [11]) [nM]	IC50 (PI3Kα; read-out: inhibition value IC50 to the activity of PI3Kα) [nM]	IC50 [2, 12] [nM]
COc1ccc(-c2nc(N3CCOCC3)c3nc(CN(C)c4ncc(C(=O)NO)cn4)n(C(C)C)c3n2)cn1 [CLJ-3, 2-(((9-isopropyl-2-(6-methoxyl-3-pyridyl)-6-morpholino-9H-purine-8-yl))methyl(methyl)amino)-N-hydroxyl pyrimidine-5-formamide]	> 1000	1000 to 10000	< 100	> 1000	> 1000					
COc1ccc(-c2nc(N3CCOCC3)c3nc(CN(C)c4ncc(C(=O)NO)cn4)n(C4CCCC4)c3n2)cn1 [CLJ-4, 2-(((9-cyclopentyl-2-(6-methoxyl-3-pyridyl)-6-morpholino-9H-purine-8-yl))methyl(methyl)amino)-N-hydroxyl pyrimidine-5-formamide]	> 1000	1000 to 10000	< 100	> 1000	> 1000					
CN(Cc1nc2c(N3CCOCC3)nc(-c3cncnc3)nc2n1C)c1ncc(C(=O)NO)cn1 [CLJ-10, 2-(((2-(pyrimidine-5-yl)-9-methyl-6-morpholine-9H-purine-8-yl))methyl(methyl)amino)-N-hydroxyl pyrimidine-5-formamide]	10 to 100	< 100	< 100	100 to 1000	10 to 100				< 100	
CCCN(Cc1nc2c(N3CCOCC3)nc(-c3ccc4[nH]ncc4c3)nc2n1C)c1ncc(C(=O)NO)cn1 [CLJ-16, N-hydroxy-2-(((2-(1H-indazole-5-yl)-9-methyl-6-morpholine-9H-purine-8-yl))methyl(propyl)amino)pyrimidine-5-formamide]	> 1000	> 10000	100 to 1000	> 1000	> 1000					
CCCCN(Cc1nc2c(N3CCOCC3)nc(-c3ccc4[nH]ncc4c3)nc2n1C)c1ncc(C(=O)NO)cn1 [CLJ-17, N-hydroxy-2-(((2-(1H-indazole-5-yl)-9-methyl-6-morpholine-9H-purine-8-yl))methyl(butyl)amino)pyrimidine-5-formamide]	> 1000	> 10000	100 to 1000	> 1000	> 1000					
CN(Cc1nc2c(N3CCOCC3)nc(-c3cccs3)nc2n1C)c1ncc(C(=O)NO)cn1 [CLJ-18, 2-(((2-(2-thienyl)-9-methyl-6-morpholine-9H-purine-8-yl))methyl(methyl)amino)-N-hydroxyl pyrimidine-5-formamide]	0.1 to 10	> 10000	< 100	10 to 100	0.1 to 10					
CCCCc1ccc(-c2nc(N3CCOCC3)c3nc(CN(C)c4ncc(C(=O)NO)cn4)n(C)c3n2)s1 [CLJ-21, 2-(((2-(5-n-butyl-2-thienyl)-9-methyl-6-morpholine-9H-purine-8-yl))methyl(methyl)amino)-N-hydroxyl pyrimidine-5-formamide]	0.1 to 10	> 10000	< 100	0.1 to 10	0.1 to 10	0.1 to 10	0.1 to 10			0.1 to 10
Cc1cscc1-c1nc(N2CCOCC2)c2nc(CN(C)c3ncc(C(=O)NO)cn3)n(C)c2n1 [CLJ-23]	0.1 to 10	> 10000	< 100	0.1 to 10	0.1 to 10	0.1 to 10	0.1 to 10			0.1 to 10
Nc1cc(F)ccc1NC(=O)c1ccc(CNC(=O)/C=C/c2cccnc2)cc1 [Chidamide, chidamide, reference compound]	100 to 1000			> 1000	> 1000					

Continued, values first:

IC50 [1, 4] [nM]	IC50 (PI3Kα; [5]) [nM]	IC50 (HDAC1; [6]) [nM]	IC50 [2, 7] [nM]	IC50 [3, 8] [nM]	IC50 [1, 9] [nM]	IC50 [3, 10] [nM]	IC50 (HDAC1; [11]) [nM]	IC50 (PI3Kα; read-out: inhibition value IC50 to the activity of PI3Kα) [nM]	IC50 [2, 12] [nM]	Compound
100 to 1000	1000 to 10000	< 100	100 to 1000	100 to 1000						CCn1c(CN(C)c2ncc(C(=O)NO)cn2)nc2c(N3CCOCC3)nc(-c3ccc(OC)nc3)nc21 [CLJ-2, 2-(((9-ethyl-2(6-methoxyl 3-pyridyl)-6-morpholino-9H-purine-8-yl))methyl(methyl)amino)-N-hydroxyl pyrimidine-5-formamide]
0.1 to 10	> 10000	< 100	10 to 100	100 to 1000	< 10	> 100				CN(Cc1nc2c(N3CCOCC3)nc(-c3ccc(N)nc3)nc2n1C)c1ncc(C(=O)NO)cn1 [CLJ-7, 2-(((2-(p-amino-3-pyridyl)-9-methyl-6-morpholine-9H-purine-8-yl))methyl(methyl)amino)-N-hydroxyl pyrimidine-5-formamide]
0.1 to 10	> 10000	< 1	10 to 100	10 to 100			< 1			CN(Cc1nc2c(N3CCOCC3)nc(-c3cccnc3)nc2n1C)c1ncc(C(=O)NO)cn1 [CLJ-9, 2-(((2-(3-pyridyl)-9-methyl-6-morpholine-9H-purine-8-yl))methyl(methyl)amino)-N-hydroxyl pyrimidine-5-formamide]
0.1 to 10	> 10000	< 100	10 to 100	0.1 to 10						Cc1ccsc1-c1nc(N2CCOCC2)c2nc(CN(C)c3ncc(C(=O)NO)cn3)n(C)c2n1 [CLJ-19, 2-(((2-(3-methyl-2-thienyl)-9-methyl-6-morpholine-9H-purine-8-yl))methyl(methyl)amino)-N-hydroxyl pyrimidine-5-formamide]
0.1 to 10	> 10000	< 100	10 to 100	0.1 to 10						CN(Cc1nc2c(N3CCOCC3)nc(-c3ccc(C(=O)O)s3)nc2n1C)c1ncc(C(=O)NO)cn1 [CLJ-20, 2-(((2-(5-carboxyl-2-thienyl)-9-methyl-6-morpholine-9H-purine-8-yl))methyl(methyl)amino)-N-hydroxyl pyrimidine-5-formamide]
0.1 to 10	> 10000	< 1	0.1 to 10	0.1 to 10	0.1 to 10	0.1 to 10	< 1		0.1 to 10	CN(Cc1nc2c(N3CCOCC3)nc(-c3ccsc3)nc2n1C)c1ncc(C(=O)NO)cn1 [CLJ-22, 2-(((2-(3-thienyl)-9-methyl-6-morpholine-9H-purine-8-yl))methyl(methyl)amino)-N-hydroxyl pyrimidine-5-formamide]
	> 10000	< 100								COc1ccc(-c2nc(N3CCNCC3)c3nc(CN(C)c4ncc(C(=O)NO)cn4)n(C)c3n2)cc1 [CLJ-69, N-hydroxy-2-(((2-(4-methoxyphenyl)-9-methyl-6-(piperazine-1-yl)-9H-purine-8-yl)methyl)(methyl)amino)pyrimidine-5-formamide]
	> 10000	< 100								COc1ccc(-c2nc(N3CCN(CCO)CC3)c3nc(CN(C)c4ncc(C(=O)NO)cn4)n(C)c3n2)cc1 [CLJ-70, N-hydroxy-2-(((2-(4-methoxyphenyl)-9-methyl-6-(4-(2-hydroxyethylpiperazine)-1-yl)-9H-purine-8-yl)methyl)(methyl)amino)pyrimidine-5-formamide]
